Literature values in PubChem BioAssay AID1259409 (Chemical Carcinogenesis Research Information System (CCRIS), 2018).

Test system: rodent chemically induced tumor inhibition, incidence and multiplicity
Assay: CCRIS tumor inhibitor studies
Details: Route [Inhibitor]: ORAL

Cc1c(C)c2c(c(C)c1O)CC[C@@](C)(CCC[C@H](C)CCC[C@H](C)CCCC(C)C)O2
tumour outcome (control, treated, inhibition, significance) (Carcinogen: 3,2-DIMETHYL-4-AMINOBIPHENYL, 13394-86-0, Dose [Inhibitor]: 0, 1% IN BASAL DIET BEGINNING POST CARCINOGEN TREATMENT AND CONTINUING FOR 40 WK (STUDY DURATION: 60 WK), Species: RAT, Strain/Sex: F344/MALE, Target Tissue: Type of Lesion: PANCREAS: ACINAR CELL NODULE, Dose [Carcinogen]: 50 MG/KG 1/2 WK FOR 20 WK TO RATS MAINTAINED ON ETHINYL ESTRADIOL CONTAINING DIET (0.75 PPM) FOR 1 WK CYCLED WITH ETHINY, Promoter: ETHINYL ESTRADIOL, 57-63-6): 4/10 (40%), 5/12 (42%), -5%, not significant | tumour outcome (control, treated, inhibition, significance) (Carcinogen: 3,2-DIMETHYL-4-AMINOBIPHENYL, 13394-86-0, Dose [Inhibitor]: 0, 1% IN BASAL DIET BEGINNING POST CARCINOGEN TREATMENT AND CONTINUING FOR 40 WK (STUDY DURATION: 60 WK), Species: RAT, Strain/Sex: F344/MALE, Target Tissue: Type of Lesion: PROSTATE: CARCINOMA, Dose [Carcinogen]: 50 MG/KG 1/2 WK FOR 20 WK TO RATS MAINTAINED ON ETHINYL ESTRADIOL CONTAINING DIET (0.75 PPM) FOR 1 WK CYCLED WITH ETHINY, Promoter: ETHINYL ESTRADIOL, 57-63-6): 5/10 (50%), 6/12 (50%), 0%, not significant | tumour outcome (control, treated, inhibition, significance) (Carcinogen: 4-NITROQUINOLINE 1-OXIDE, 56-57-5, Dose [Inhibitor]: 25.5, 550.9 MG/KG IN DIET FOR DURATION OF STUDY (STUDY DURATION: 23 WK), Species: MOUSE, Strain/Sex: DDY/MALE, Target Tissue: Type of Lesion: LUNG: TUMOR, Dose [Carcinogen]: 10 MG/KG BW SUSPENDED IN OLIVE OIL AND CHOLESTEROL (20:1, W/W) ONCE, Promoter: NONE USED): 6/11 (55%), 4/11 (36%), 36%, not significant | tumour outcome (control, treated, inhibition, significance) (Carcinogen: 4-NITROQUINOLINE 1-OXIDE, 56-57-5, Dose [Inhibitor]: EXCESSIVE VITAMIN E (DOSE NOT STATED) IN THE DIET FOR 4 WK POST CARCINOGEN DOSE (STUDY DURATION: 23 WK), Species: MOUSE, Strain/Sex: DDY/MALE, Target Tissue: Type of Lesion: LUNG: TUMOR, Dose [Carcinogen]: 10 MG/KG BW ONCE, Promoter: GLYCEROL, 56-81-5): 9/11 (82%), 5/11 (45%), 45%, not calculated | tumour outcome (control, treated, inhibition, significance) (Carcinogen: 4-NITROQUINOLINE 1-OXIDE, 56-57-5, Dose [Inhibitor]: EXCESSIVE VITAMIN E (DOSE NOT STATED) IN THE DIET FOR 23 WK POST CARCINOGEN DOSE (STUDY DURATION: 23 WK), Species: MOUSE, Strain/Sex: DDY/MALE, Target Tissue: Type of Lesion: LUNG: TUMOR, Dose [Carcinogen]: 10 MG/KG BW ONCE, Promoter: GLYCEROL, 56-81-5): 9/11 (82%), 2/9 (22%), 73%, not calculated | tumour outcome (control, treated, inhibition, significance) (Carcinogen: 7,12-DIMETHYLBENZ[A]ANTHRACENE, 57-97-6, Dose [Inhibitor]: 0, 3.349 UMOL/G IN DIET FOR DURATION OF STUDY (STUDY DURATION: 18 WK), Species: RAT, Strain/Sex: SPRAGUE-DAWLEY/FEMALE, Target Tissue: Type of Lesion: MAMMARY GLAND: TUMOR, Dose [Carcinogen]: 50 MG/KG IN SESAME OIL ONCE, Promoter: NONE USED): 88%, 79%, 10%, not significant | tumour outcome (control, treated, inhibition, significance) (Carcinogen: 7,12-DIMETHYLBENZ[A]ANTHRACENE, 57-97-6, Dose [Inhibitor]: 0.2% IN DIET FROM WEANING ONWARD (STUDY DURATION: 6 MO AFTER CARCINOGEN ADMINISTRATION), Species: RAT, Strain/Sex: SPRAGUE-DAWLEY/FEMALE, Target Tissue: Type of Lesion: MAMMARY GLAND: TUMOR, Dose [Carcinogen]: 10 MG/RAT IN 1 ML STRIPPED CORN OIL SINGLE DOSE ON D 50 FOLLOWING 24 HR FASTING PERIOD, Promoter: NONE USED): 70%, 70%, 0%, not calculated | tumour outcome (control, treated, inhibition, significance) (Carcinogen: 7,12-DIMETHYLBENZ[A]ANTHRACENE, 57-97-6, Dose [Inhibitor]: 0.2% IN DIET FROM WEANING ONWARD (STUDY DURATION: 6 MO AFTER CARCINOGEN ADMINISTRATION), Species: RAT, Strain/Sex: SPRAGUE-DAWLEY/FEMALE, Target Tissue: Type of Lesion: MAMMARY GLAND: TUMOR, Dose [Carcinogen]: 10 MG/RAT IN 1 ML STRIPPED CORN OIL, SINGLE DOSE ON D 5 FOLLOWING 24 HR FASTING PERIOD, Promoter: NONE USED): 40%, 37%, 8%, not calculated | tumour outcome (control, treated, inhibition, significance) (Carcinogen: 7,12-DIMETHYLBENZ[A]ANTHRACENE, 57-97-6, Dose [Inhibitor]: 0.2% IN DIET FROM WEANING ONWARD (STUDY DURATION: 6 MO AFTER CARCINOGEN ADMINISTRATION), Species: RAT, Strain/Sex: SPRAGUE-DAWLEY/FEMALE, Target Tissue: Type of Lesion: MAMMARY GLAND: TUMOR, Dose [Carcinogen]: 10 MG/RAT IN 1 ML STRIPPED CORN OIL, SINGLE DOSE ON D 50 FOLLOWING 24 HR FASTING PERIOD, Promoter: NONE USED): 100%, 100%, 0%, not calculated | tumour outcome (control, treated, inhibition, significance) (Carcinogen: 7,12-DIMETHYLBENZ[A]ANTHRACENE, 57-97-6, Dose [Inhibitor]: 0.2% IN DIET, UNSATURATED FAT THROUGHOUT THE EXPERIMENT, (STUDY DURATION: 32 WK), Species: RAT, Strain/Sex: SPRAGUE-DAWLEY/FEMALE, Target Tissue: Type of Lesion: MAMMARY GLAND: PARENCHYMAL CARCINOMA, Dose [Carcinogen]: 10 MG IN 1 ML CORN OIL AT 50 D OF AGE CELL ONCE, Promoter: NONE USED): 100%, 100%, 0%, not calculated | tumour outcome (control, treated, inhibition, significance) (Carcinogen: 7,12-DIMETHYLBENZ[A]ANTHRACENE, 57-97-6, Dose [Inhibitor]: 0.2% IN HIGH POLYUNSATURATED FAT DIET DAILY STARTING 29 D BEFORE CARCINOGEN TREATMENT AND CONTINUING FOR DURATION OF STU, Species: RAT, Strain/Sex: SPRAGUE-DAWLEY/FEMALE, Target Tissue: Type of Lesion: MAMMARY GLAND: ADENOCARCINOMA, Dose [Carcinogen]: 10 MG IN 1 ML STRIPPED CORN OIL ONCE AT 50 D OF AGE, Promoter: NONE USED): 100%, 100%, 0%, not calculated
